According to patent publication US4596811A, “Heterocyclic compounds, a process for their production and medicaments containing these compounds” (Ludwig Heumann & Co., GmbH, priority 1982, dated 1986):

Molecular target: T1, histamine-H2 receptors (isolated atrium) (Cavia porcellus, UniProt P47747)
T1 construct: in vitro on the isolated atrium of guinea pigs; from tissue; host or cells: isolated guinea pig atrium
Assay: H2-antagonistic activity, pA2-values in vitro on the isolated atrium of guinea pigs
Assay type: cell-based
Conditions: isolated guinea pig atrium, H2 antagonism
Excerpt: An accepted method for determining H2-antagonistic activity is to determine the pA2-values in vitro on the isolated atrium of guinea pigs (cf. Ariens, Molecular Pharmacology, Vol. 1, Academic Press, New York, 1964).

T1 sequence (P47747 whole entry): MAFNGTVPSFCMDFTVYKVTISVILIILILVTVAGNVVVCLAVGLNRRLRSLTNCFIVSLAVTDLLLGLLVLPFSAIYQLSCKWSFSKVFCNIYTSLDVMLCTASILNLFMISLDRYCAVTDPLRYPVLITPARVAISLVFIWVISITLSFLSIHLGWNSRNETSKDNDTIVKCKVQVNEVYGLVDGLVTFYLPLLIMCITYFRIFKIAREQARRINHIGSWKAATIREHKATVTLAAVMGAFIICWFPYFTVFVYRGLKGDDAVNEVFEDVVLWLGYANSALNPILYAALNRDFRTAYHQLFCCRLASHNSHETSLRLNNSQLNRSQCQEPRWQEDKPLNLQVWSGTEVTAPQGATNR

Row | Kb [nM] | SMILES
1 | 63.1 | N=C(CCSCc1csc(CN2CCCCC2)c1)NS(=O)(=O)c1ccc(N)cc1 [Example 12]
2 | 79.4 | CN(C)Cc1cc(CSCCC(=N)NS(=O)(=O)c2ccc(N)cc2)cs1 [Example 2, N-(p-aminobenzene-sulfonyl)-3-[(2-N,N-dimethylaminomethylthienyl-4)-methylthio]-propionamidine]
3 | 112 | N=C(CCCCOc1cccc(CN2CCCCC2)c1)NS(=O)(=O)c1ccc(N)cc1 [Example 10]
